ChEMBL document CHEMBL5465560, “Selectivity Literature for EUbOPEN Chemogenomic Library” (2024)

Key:
[1] = target: Casein kinase II subunit alpha' (Homo sapiens) (UniProt P19784); experiment: Selectivity interaction (KinomeScan (DiscoverX)) EUB0001049a CSNK2A2; settings: at 1 µM
[2] = target: Sodium-dependent noradrenaline transporter (Homo sapiens, UniProt P23975); experiment: Selectivity interaction (Eurofins CEREP Diversity Profile (receptors and ion channels)) EUB0000279b SLC6A2; settings: at 10 µM
[3] = target: Activated CDC42 kinase 1 (Homo sapiens, UniProt Q07912); experiment: Selectivity interaction (Kinase panel (KiNativ target engagement assay in Jurkat cells)) EUB0001635a TNK2; assay type: cell-based; settings: Selectivity number of off-targets 0.0, Selectivity number of targets 233.0, Source Knowledge https://www.sciencedirect.com/science/article/pii/S2451945619300674?via%3Dihub, at 1 µM
[4] = target: Serine/threonine-protein kinase 38 (Homo sapiens) (UniProt Q15208); experiment: Selectivity interaction (Kinase panel (KiNativ target engagement assay in Jurkat cells)) EUB0001635a STK38; assay type: cell-based; settings: Selectivity number of off-targets 0.0, Selectivity number of targets 233.0, Source Knowledge https://www.sciencedirect.com/science/article/pii/S2451945619300674?via%3Dihub, at 1 µM
[5] = target: Ribosomal protein S6 kinase beta-1 (Homo sapiens, UniProt P23443); experiment: Selectivity interaction (Kinase panel (KiNativ target engagement assay in Jurkat cells)) EUB0001635a RPS6KB1; assay type: cell-based; settings: at 1 µM
[6] = target: Tyrosine-protein kinase Lck (Homo sapiens, UniProt P06239); experiment: Selectivity interaction (Kinase panel (33PanQinase(R) Activity Assay)) EUB0000877a LCK
[7] = target: Ephrin type-A receptor 2 (Homo sapiens) (UniProt P29317); experiment: Selectivity interaction (Kinase panel (DSF assay)) EUB0001559a EPHA2
[8] = target: T1, Interleukin-1 receptor-associated kinase 3 (Homo sapiens) (UniProt Q9Y616); experiment: Selectivity interaction (ActivX KiNativ screen (kinase selectivity in THP-1 cell lysates)) EUB0000639a IRAK3; assay type: subcellular; settings: lysate, at 0.04 µM
T1 sequence (whole entry): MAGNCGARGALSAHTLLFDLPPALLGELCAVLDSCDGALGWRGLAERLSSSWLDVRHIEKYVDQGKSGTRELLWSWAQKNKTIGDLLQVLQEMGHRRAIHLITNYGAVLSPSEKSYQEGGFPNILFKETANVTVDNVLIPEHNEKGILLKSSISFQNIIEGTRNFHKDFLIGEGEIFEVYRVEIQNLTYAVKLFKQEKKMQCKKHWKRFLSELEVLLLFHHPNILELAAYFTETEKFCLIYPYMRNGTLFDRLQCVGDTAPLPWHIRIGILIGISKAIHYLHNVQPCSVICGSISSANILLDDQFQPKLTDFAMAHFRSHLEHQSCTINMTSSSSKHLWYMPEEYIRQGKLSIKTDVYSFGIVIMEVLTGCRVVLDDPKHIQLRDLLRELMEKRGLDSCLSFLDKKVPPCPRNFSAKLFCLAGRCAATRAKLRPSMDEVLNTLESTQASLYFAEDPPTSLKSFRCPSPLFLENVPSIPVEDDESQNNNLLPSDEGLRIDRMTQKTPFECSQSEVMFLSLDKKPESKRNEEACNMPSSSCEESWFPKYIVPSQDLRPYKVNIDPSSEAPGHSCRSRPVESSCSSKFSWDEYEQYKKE

[9] = test system: T2, Receptor-type tyrosine-protein kinase FLT3 (Homo sapiens), P36888 [N841I]; experiment: (§1) Selectivity interaction (KinomeScan (DiscoverX)) EUB0000595a FLT3; settings: at 10 µM
T2 sequence (whole entry): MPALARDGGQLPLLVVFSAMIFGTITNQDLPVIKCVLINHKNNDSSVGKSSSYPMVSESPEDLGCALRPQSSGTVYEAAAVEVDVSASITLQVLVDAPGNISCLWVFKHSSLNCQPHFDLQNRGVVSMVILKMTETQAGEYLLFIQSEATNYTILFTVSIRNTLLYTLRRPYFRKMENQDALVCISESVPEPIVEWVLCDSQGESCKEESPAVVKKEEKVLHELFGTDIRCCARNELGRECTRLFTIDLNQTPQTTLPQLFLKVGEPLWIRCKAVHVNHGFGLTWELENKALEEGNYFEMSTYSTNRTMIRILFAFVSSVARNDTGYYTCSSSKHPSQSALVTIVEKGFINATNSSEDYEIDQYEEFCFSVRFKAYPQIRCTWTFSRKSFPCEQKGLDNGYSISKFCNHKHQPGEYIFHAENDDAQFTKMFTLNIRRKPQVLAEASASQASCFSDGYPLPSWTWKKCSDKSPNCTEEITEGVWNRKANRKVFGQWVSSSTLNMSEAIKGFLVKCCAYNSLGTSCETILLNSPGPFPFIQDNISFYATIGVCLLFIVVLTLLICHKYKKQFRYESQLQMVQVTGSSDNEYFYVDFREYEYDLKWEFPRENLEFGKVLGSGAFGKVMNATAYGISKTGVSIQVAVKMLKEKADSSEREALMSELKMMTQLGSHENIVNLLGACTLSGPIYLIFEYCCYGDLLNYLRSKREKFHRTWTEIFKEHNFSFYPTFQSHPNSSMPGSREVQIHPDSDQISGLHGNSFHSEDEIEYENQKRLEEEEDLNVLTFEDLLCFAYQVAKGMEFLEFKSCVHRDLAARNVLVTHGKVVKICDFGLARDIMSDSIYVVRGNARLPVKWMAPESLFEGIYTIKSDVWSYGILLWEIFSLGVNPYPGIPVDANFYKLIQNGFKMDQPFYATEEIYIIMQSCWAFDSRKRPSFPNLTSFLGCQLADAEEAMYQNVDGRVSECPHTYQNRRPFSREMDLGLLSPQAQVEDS

[10] = target: Receptor-type tyrosine-protein kinase FLT3 (Homo sapiens) (UniProt P36888); experiment: as §1; settings: at 10 µM
[11] = target: Serine/threonine-protein kinase 26 (Homo sapiens, UniProt Q9P289); experiment: Selectivity interaction (KinomeScan (DiscoverX)) EUB0000618a STK26; settings: at 10 µM
[12] = target: Mu-type opioid receptor (Homo sapiens, UniProt P35372); experiment: Selectivity interaction (Panel of non-epigenetic targets (kinases, GPCRs, ion channels, and transporters, Eurofins) ) EUB0000271b OPRM1; settings: at 1 µM
Chain of Mu-type opioid receptor (P35372 whole entry): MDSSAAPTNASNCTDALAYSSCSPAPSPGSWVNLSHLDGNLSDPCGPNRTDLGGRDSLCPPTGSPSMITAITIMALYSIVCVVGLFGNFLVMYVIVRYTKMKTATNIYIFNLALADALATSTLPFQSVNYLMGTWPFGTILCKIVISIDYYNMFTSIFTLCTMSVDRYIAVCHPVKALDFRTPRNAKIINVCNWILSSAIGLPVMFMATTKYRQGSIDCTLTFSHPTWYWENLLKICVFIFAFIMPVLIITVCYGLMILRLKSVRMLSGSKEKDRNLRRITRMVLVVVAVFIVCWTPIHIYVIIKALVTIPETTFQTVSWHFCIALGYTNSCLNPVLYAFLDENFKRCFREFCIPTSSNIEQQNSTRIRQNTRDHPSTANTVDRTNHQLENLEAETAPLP

Chain of Ribosomal protein S6 kinase beta-1 (P23443 whole entry, looked up): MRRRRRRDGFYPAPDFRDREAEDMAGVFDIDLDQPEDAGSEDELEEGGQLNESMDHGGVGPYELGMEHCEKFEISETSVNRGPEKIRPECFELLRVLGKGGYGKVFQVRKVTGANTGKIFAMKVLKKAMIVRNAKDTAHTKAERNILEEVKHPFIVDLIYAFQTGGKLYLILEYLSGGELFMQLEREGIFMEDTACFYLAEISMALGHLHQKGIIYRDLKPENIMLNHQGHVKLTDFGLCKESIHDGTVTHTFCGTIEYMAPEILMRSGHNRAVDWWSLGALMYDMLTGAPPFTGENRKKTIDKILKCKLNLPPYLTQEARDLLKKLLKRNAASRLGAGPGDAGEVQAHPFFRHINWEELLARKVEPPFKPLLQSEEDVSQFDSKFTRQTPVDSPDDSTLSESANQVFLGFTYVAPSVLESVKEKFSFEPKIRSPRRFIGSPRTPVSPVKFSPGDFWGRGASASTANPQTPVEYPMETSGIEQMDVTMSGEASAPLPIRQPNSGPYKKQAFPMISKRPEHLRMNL
Chain of Serine/threonine-protein kinase 26 (Q9P289 2-416 limits assumed): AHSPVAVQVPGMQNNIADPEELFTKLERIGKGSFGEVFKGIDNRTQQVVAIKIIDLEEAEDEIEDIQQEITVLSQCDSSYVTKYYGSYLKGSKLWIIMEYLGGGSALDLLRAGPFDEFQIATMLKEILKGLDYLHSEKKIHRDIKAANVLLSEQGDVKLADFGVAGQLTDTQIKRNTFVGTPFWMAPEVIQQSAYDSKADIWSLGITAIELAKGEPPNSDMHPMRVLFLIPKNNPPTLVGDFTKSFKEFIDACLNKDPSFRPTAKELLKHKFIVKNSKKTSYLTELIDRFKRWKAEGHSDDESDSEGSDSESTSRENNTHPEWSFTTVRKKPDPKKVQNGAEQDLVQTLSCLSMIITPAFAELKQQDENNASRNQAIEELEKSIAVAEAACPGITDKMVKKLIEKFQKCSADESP
Chain of Ephrin type-A receptor 2 (Homo sapiens) (P29317 whole entry): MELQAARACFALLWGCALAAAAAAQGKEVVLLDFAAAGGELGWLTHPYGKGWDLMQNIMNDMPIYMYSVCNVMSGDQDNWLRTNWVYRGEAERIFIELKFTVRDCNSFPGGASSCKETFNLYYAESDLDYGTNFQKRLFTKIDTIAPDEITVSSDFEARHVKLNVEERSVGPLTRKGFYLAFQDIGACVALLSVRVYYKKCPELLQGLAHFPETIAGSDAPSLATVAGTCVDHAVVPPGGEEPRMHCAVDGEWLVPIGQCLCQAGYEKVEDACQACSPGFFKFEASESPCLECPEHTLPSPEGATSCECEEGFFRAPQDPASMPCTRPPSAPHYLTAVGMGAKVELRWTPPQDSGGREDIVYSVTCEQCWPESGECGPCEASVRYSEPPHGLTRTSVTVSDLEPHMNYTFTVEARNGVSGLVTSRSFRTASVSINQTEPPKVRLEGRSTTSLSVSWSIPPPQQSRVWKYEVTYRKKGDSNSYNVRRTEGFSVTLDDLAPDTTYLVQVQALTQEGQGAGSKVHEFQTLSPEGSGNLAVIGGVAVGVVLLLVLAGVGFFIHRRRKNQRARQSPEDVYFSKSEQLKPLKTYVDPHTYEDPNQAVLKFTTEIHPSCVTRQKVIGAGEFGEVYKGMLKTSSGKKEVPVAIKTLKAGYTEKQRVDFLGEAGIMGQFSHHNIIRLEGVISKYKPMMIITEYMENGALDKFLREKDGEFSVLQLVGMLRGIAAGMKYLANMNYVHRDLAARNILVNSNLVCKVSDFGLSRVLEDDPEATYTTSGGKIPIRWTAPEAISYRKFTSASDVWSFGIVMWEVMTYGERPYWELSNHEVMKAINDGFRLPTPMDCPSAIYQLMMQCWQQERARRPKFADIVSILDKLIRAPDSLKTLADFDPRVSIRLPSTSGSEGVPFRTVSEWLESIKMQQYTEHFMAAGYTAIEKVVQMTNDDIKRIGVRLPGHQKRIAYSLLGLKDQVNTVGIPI
Chain of Activated CDC42 kinase 1 (Q07912 whole entry, looked up): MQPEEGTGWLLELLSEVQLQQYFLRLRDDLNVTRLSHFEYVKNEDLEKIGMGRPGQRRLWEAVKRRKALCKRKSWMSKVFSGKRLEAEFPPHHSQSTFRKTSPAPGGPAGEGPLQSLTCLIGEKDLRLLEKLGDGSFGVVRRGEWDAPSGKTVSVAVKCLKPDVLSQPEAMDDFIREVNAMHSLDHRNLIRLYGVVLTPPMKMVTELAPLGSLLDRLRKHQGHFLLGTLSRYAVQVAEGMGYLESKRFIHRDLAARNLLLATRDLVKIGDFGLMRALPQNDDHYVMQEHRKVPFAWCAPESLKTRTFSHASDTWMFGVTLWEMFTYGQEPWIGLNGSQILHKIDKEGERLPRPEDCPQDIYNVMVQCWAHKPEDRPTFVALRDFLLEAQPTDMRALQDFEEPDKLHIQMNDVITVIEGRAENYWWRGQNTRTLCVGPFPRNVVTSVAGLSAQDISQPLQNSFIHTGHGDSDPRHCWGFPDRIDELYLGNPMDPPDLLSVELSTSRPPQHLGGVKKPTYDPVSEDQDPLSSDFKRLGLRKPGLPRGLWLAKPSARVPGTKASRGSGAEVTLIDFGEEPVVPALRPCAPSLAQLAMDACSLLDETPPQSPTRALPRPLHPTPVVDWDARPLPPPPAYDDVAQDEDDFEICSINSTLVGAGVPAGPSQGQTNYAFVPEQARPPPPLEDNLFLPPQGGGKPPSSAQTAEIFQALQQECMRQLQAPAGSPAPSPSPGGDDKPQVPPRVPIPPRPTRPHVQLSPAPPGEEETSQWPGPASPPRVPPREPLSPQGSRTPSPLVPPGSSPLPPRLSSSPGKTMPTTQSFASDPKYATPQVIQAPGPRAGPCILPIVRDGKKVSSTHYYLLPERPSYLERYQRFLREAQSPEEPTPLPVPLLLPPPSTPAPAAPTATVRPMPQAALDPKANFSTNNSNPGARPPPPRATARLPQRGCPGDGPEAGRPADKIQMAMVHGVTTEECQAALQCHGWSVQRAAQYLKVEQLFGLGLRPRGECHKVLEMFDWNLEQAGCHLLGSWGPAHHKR
Chain of Casein kinase II subunit alpha' (Homo sapiens) (P19784 whole entry, looked up): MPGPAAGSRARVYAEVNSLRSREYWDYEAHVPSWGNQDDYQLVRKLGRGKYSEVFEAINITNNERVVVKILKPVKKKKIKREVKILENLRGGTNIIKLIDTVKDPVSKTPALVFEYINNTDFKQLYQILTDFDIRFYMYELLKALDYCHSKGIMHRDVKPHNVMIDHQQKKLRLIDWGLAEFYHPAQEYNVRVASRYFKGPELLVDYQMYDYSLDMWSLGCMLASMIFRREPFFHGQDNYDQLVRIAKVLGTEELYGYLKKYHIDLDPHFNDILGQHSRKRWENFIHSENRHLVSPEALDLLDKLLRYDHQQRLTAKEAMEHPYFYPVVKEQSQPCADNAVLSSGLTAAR
Chain of Sodium-dependent noradrenaline transporter (P23975 whole entry): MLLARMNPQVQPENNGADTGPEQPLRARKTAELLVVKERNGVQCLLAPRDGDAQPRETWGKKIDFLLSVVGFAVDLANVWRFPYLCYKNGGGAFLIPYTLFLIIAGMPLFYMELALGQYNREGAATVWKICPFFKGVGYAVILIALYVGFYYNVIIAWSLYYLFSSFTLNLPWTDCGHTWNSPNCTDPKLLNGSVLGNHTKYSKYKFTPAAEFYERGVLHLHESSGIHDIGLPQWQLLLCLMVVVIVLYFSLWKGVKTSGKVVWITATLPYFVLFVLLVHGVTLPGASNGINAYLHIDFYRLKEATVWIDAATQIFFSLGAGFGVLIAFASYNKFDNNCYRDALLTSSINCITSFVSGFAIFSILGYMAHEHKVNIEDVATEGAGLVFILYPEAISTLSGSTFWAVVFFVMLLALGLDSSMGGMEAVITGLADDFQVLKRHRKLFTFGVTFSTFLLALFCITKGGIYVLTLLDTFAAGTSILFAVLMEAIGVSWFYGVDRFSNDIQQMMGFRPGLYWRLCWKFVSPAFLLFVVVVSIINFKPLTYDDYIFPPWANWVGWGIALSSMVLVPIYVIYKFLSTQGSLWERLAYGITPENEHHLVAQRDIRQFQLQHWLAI
Chain of Serine/threonine-protein kinase 38 (Homo sapiens) (Q15208 2-465 limits assumed): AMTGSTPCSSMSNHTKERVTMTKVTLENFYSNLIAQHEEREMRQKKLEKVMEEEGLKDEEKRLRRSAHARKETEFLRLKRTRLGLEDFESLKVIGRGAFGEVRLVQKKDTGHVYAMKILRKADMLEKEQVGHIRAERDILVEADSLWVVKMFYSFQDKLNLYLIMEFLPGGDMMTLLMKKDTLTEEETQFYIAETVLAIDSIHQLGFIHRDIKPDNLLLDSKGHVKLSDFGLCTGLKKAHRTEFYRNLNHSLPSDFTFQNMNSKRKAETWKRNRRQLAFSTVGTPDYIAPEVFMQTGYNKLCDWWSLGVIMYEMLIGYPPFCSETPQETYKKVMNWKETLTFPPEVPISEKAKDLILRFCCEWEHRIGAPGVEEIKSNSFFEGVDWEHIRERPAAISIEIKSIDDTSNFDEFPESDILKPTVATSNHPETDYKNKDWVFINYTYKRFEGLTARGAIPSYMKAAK

COc1cc(Nc2nc(C)cc(-c3cnn4nc(OC)ccc34)n2)cc(C(F)(F)F)c1
% of control [1]: 59%

CC(=O)c1cc(-c2ccccc2OCC2CC2)c2ncccn12
% of control [2]: 90%

C=CC(=O)Nc1ccc(C(=O)Nc2[nH]nc3c2CN(C(=O)N[C@H](CN(C)C)c2ccccc2)C3(C)C)cc1
% of engagement [3]: -3.6% | % of engagement [4]: 0.3% | % of engagement ([5]; Selectivity number of off-targets 0.0, Selectivity number of targets 233.0, Source Knowledge https://www.sciencedirect.com/science/article/pii/S2451945619300674?via%3Dihub): 7.5% | % of engagement [5]: -9.4%

CCC(=O)N1CC[C@H](Nc2ncnc3c2CN(c2cnc(OC)c(C(F)(F)F)c2)CC3)C1 [LENIOLISIB]
IC50 [6]: > 10 µM

CN(C(=O)c1cnn2cccnc12)c1cc2c(cc1N1CCOCC1)C(=O)N(C[C@@H](F)C(C)(C)O)C2
dTM [7]: -0.4 K

CC[C@@H]1[C@H](F)C(=O)N[C@@H]1COc1nccc2cc(C(N)=O)c(OC)cc12 [ZIMLOVISERTIB]
% of inhibition [8]: -1.7%

COCC(=O)NC/C=C/c1ccc2ncnc(Nc3ccc(Oc4ccc(C)nc4)c(C)c3)c2c1 [CP-724714]
% of control [9]: 79% | % of control [10]: 100%

O[C@H]1CC[C@H](Nc2ncc3nc(Nc4c(F)cc(F)cc4F)n([C@H]4CCOC4)c3n2)CC1
% of control [11]: 82%

Cc1cc(C)cc([C@@H]2c3cc(C)ccc3NC(=O)CN2C(=O)c2ccc(Br)s2)c1
% of inhibition [12]: 4%
